In PubChem BioAssay AID1361 (SRMLSC, 2008):
Activity calls are given as the source filed them. How the calls were made is not given here.

Assay: blockers of mitochondrial fusion, WT vs mutant – cell-based, chemical genetic, wild-type and mutant, confirmation (AID 1361)
Details: Cell-based mitochondrial fusion phenotype, imaging
[1] = mutant cells, measured here: mutant cell line IC50

Row | SMILES | IC50 (WT cells) | IC50 [1] [µM]
1 | COc1ccc(-n2cc(-c3ccccc3)c3c(N4CC(C)OC(C)C4)ncnc32)cc1 (centres undefined) | 21.5 µM | > 25
2 | CCCCSc1nnc(-c2ccc(C)cc2)c2ccccc12 | 9.57 µM | 23.1
3 | Cc1ccc(C)c(C(=O)COC(=O)c2cc([N+](=O)[O-])ccc2NCCO)c1 | 25 µM (inactive) | > 12.5
4 | CCOC(=O)c1sc(/N=C/c2c(C)[nH]n(-c3ccccc3)c2=O)c(C#N)c1C | > 25 µM (inactive) | > 25
5 | COc1ccccc1C(=O)NC(=S)/C=C1/N(C)c2ccccc2C1(C)C | 10.8 µM | > 25
6 | CN(c1cccc(NC(=O)Nc2ccc(Cl)cc2)c1)S(C)(=O)=O | > 25 µM (inactive) | > 25
7 | CCC[C@@H]1C[C@@]1(CCC)[C@@H](NP(=O)(c1ccccc1)c1ccccc1)c1ccc(C(=O)OC)cc1 | 12.6 µM | > 25
8 | COC(=O)C1C(=O)NCC1c1ccccc1 (centres undefined) | > 25 µM (inactive) | > 25
9 | COCCNC(=O)c1cccc(Nc2nc(-c3ccccc3)c3cc(Cl)ccc3n2)c1 | 19.4 µM | > 25
10 | Cc1ccc(-c2ncccc2OC(=O)C23CC4CC(CC(C4)C2)C3)cc1 | 18.8 µM | > 25
11 | S=C(Nc1ccccc1Oc1ccccc1)Nc1cccc(Cl)c1Cl | 12.6 µM | 22.4
12 | O=C(CSc1nc2cc(Cl)ccc2o1)NCCc1ccccc1 | > 25 µM (inactive) | > 25
13 | c1ccc2c(c1)CCN(c1ncnc3c1[nH]c1ccccc13)C2 | > 25 µM (inactive) | > 25
14 | COc1ccc(N2CCN(CCNC(=O)c3nnc(Cc4c(F)cccc4Cl)o3)CC2)cc1 | > 25 µM (inactive) | > 25
15 | Cc1ncsc1C(=O)N1N=C2/C(=C/c3ccccc3)CCCC2C1c1ccccc1 (centres undefined) | 10.3 µM | > 25
16 | Cc1ccc(NC(=O)CC2S/C(=N/N=C3\CCCc4ccccc43)NC2=O)cc1 (centres undefined) | 22.2 µM | > 25
17 | O=C(COC(=O)c1ccccc1C(=O)c1ccc(Cl)c([N+](=O)[O-])c1)NC1CCCCCC1 | > 25 µM (inactive) | > 25
18 | COCCNC(=O)CC(NS(=O)(=O)c1ccc(C)cc1)c1ccco1 (centres undefined) | > 25 µM (inactive) | > 25
19 | COc1ccc(/C=C/C(=O)N2CCN(c3ccccn3)CC2)c2ccccc12 | 19.9 µM | > 25
20 | Cc1ccc(C(C)C)cc1OCC(=O)N/N=C/c1ccc2c(c1)OCCO2 | 18.3 µM | > 25
21 | CCOC(=O)c1cnc(-c2ccccc2)nc1-c1ccccc1 | > 25 µM (inactive) | > 25

Row | SMILES | IC50 (WT cells) | IC50 [1] [µM]
22 | COc1ccc(NC(=S)NCCC(c2ccccc2)c2ccccc2)c(OC)c1 | 7.67 µM | > 25
23 | CCOCCCNC(=S)N1CCCN(c2nc3c(C)c(C)ccc3cc2C#N)CC1 | 11.8 µM | > 25
24 | CCCc1c(C)[nH]c2ccc(NC(C)=O)cc2c1=O | > 25 µM (inactive) | > 25
25 | C/C(CCN1CCc2nc(-c3ccccc3)c(-c3ccccc3)cc2C1)=N\OC[C@@H](C)[C@H](OCc1ccccc1)C(C)C | > 25 µM (inactive) | > 25
26 | N#CC1=C(N)SC(N)=C(C#N)C1c1c(Cl)cccc1Cl | > 25 µM (inactive) | > 25
27 | COc1ccc(OCCC(=O)N2CCCCC2)cc1 | > 25 µM (inactive) | > 25
28 | COC(=O)Nc1snnc1C | > 25 µM (inactive) | > 25
29 | CC12CCC3C(CC=C4CC(O)CCC43C)C1C/C(=C\c1ccccc1F)C2=O (centres undefined) | 9.36 µM | > 25
30 | C=CCSc1nnc(NC(=O)COc2ccc3ccccc3c2)s1 | > 25 µM (inactive) | > 25
31 | Cc1ccc(C(NC(=O)NC(C)c2ccccc2)C(Cl)(Cl)Cl)cc1F (centres undefined) | 10.9 µM | > 25
32 | CCCOc1ccc(Cc2c(Cl)nc(SC)nc2N(C)C)cc1 | 9.94 µM | > 25
33 | CC(C)(C)[C@@H]1C=C(C(=O)N2CCN(Cc3ccccc3)CC2)O[C@H](OCc2ccc(CO)cc2)C1 | 23.8 µM | > 25
34 | CCOC(=O)C1=NN(c2cccc(C)c2)C2(S1)SC(C(C)=O)=C(C)N2c1ccccc1 (centres undefined) | 8.2 µM | > 25
35 | O=C(CNC(=S)N(Cc1ccccc1)Cc1ccccc1F)NCCc1ccc(Cl)cc1 | 4.01 µM | > 25
36 | CNc1oc(C)nc1S(=O)(=O)c1ccc(C)cc1 | > 25 µM (inactive) | > 25
37 | COC(=O)CCC(=O)COc1ccc(OC)cc1C#N | > 25 µM (inactive) | > 25
38 | C/C(=N\Nc1cc(-c2ccccc2)nc(-c2ccccc2)n1)c1ccc(O)c(C)c1 | 3.31 µM | > 25
39 | COc1ccc(C2CC(=O)c3cnc(Nc4cc(C)cc(C)c4)nc3C2)cc1 (centres undefined) | > 25 µM (inactive) | > 25
40 | CCCc1cc(-c2nc(N)ncc2-c2ccc3c(c2)OCCCO3)c(O)cc1OC | 14 µM | > 25
41 | COc1ccc(-c2noc(-c3ccccc3-c3ccccc3)n2)cc1OC | > 25 µM (inactive) | > 25
42 | CC1CC(C)CN(c2ncnc3c2cnn3Cc2ccc(Cl)cc2)C1 (centres undefined) | 12.8 µM | 17.9

Row | SMILES | IC50 (WT cells) | IC50 [1] [µM]
43 | Cc1nc(-c2cccc(NS(=O)(=O)c3cccc4ccccc34)c2)cs1 | 15.9 µM | > 25
44 | O=C(N/N=C/c1c[nH]c2ccccc12)c1[nH]c2ccc(Br)cc2c1-c1ccccc1 | 3.58 µM | 14.9
45 | CCCCC(c1nnnn1CC1CCCO1)N1CCN(c2cc(Cl)ccc2C)CC1 (centres undefined) | 21.6 µM | > 25
46 | Cc1nn(-c2cc(C)c3ccccc3n2)c2c1C1C(C2)C1(C)C (centres undefined) | > 25 µM (inactive) | > 25
47 | Clc1cncc(Cl)c1NNc1c2ccccc2nc2ccccc12 | > 25 µM (inactive) | > 25
48 | Cc1nc(N2CCCCC2)c2c(C)c(C(=O)Nc3ccccc3C(F)(F)F)sc2n1 | > 25 µM (inactive) | > 25
49 | O=C(NC(=S)Nc1ccccc1N1CCCCC1)c1ccccc1 | 24.9 µM (inactive) | > 25
50 | Cn1c(/C=C/N2CCOCC2)c(C(=O)c2ccc(Br)cc2)c(=O)n(C)c1=O | > 25 µM (inactive) | > 25
51 | COc1ccc(C(=NNc2ccccc2C(=O)O)c2ccc(OC)cc2)cc1 | 17.8 µM | > 25
52 | CCCC(NC(=S)NCC1CCCO1)C12CC3CC(CC(C3)C1)C2 (centres undefined) | 7.52 µM | > 25
53 | Cc1ccc2cc(CN(C(=O)c3ccco3)c3ccccc3C)c(=O)[nH]c2c1 | > 25 µM (inactive) | > 25
54 | CCC(C)(C)c1ccc(OCC(=O)N(C)C)c(C(C)(C)CC)c1 | 20.9 µM | > 25
55 | CCOC(=O)/C(=C\c1cccnc1)C(=O)c1cc(C(C)=O)c(Nc2ccccc2)s1 | 4.87 µM | > 25
56 | O=C(CCCCCN1C(=O)c2ccccc2C1=O)Nc1ccc(S(=O)(=O)N2CCCCC2)cc1 | > 25 µM (inactive) | > 12.5
57 | CCc1cccc(CC)c1NC(=S)NCCc1c(C)[nH]c2ccc(C)cc12 | 9.59 µM | > 25
58 | O=C(NCc1ccccn1)C(=O)Nc1nc(C23CC4CC(CC(C4)C2)C3)cs1 | 15 µM | > 25
59 | CCOC(=O)c1c(NC(=O)C(C)N2CCN(C(=O)c3ccco3)CC2)sc2c1CCCC2 (centres undefined) | 10.9 µM | > 25
60 | Cc1oc(-c2ccccc2)nc1CN1C(=O)CN=C(c2ccccc2)c2ccccc21 | > 25 µM (inactive) | > 25
61 | O=C(c1ccc(-c2nnc(-c3ccccc3)o2)cc1)N1CCCCCC1 | > 25 µM (inactive) | > 25
62 | Cn1c(Cc2ccccc2)nnc1SCC(=O)c1ccc(Br)s1 | > 25 µM (inactive) | > 12.5
63 | Clc1ccc(C2=Nn3c(nnc3-c3cc(-c4ccccc4)n[nH]3)SC2)cc1 | > 25 µM (inactive) | > 25

Row | SMILES | IC50 (WT cells) | IC50 [1] [µM]
64 | O=c1c2c3c(sc2nc2n1CCC2)CCC3 | > 25 µM (inactive) | > 25
65 | Cc1ccc2nc(NCCCNC(=O)c3cnccn3)c(C#N)cc2c1 | > 25 µM (inactive) | > 25
66 | O=C(CSc1ncn[nH]1)NCc1ccccc1 | > 25 µM (inactive) | > 25
67 | Cc1oc(-c2ccccc2Cl)nc1CN1C(=O)CN=C(c2ccccc2)c2ccccc21 | 20.5 µM | > 25
68 | CC(C)C12CN3CCN(CC(C3)C1O)C2 (centres undefined) | > 25 µM (inactive) | > 25
69 | CCN1CCc2nc(NC(=O)c3ccccc3)sc2C1 | > 25 µM (inactive) | > 12.5
70 | Cc1ccc(NC(=S)N(Cc2ccc(Br)cc2)Cc2ccc(C(=O)O)cc2)cc1C | > 25 µM (inactive) | > 25
71 | O=c1cc(N2CCCCC2)c(-c2ccccc2)nn1Cc1ccc(F)cc1 | 17.4 µM | > 25
72 | Cc1cccc(N2CCN(C(=O)c3ccc(Cl)c(S(=O)(=O)NCc4ccco4)c3)CC2)c1C | > 25 µM (inactive) | > 25
73 | COc1cccc(CNC(=O)CNC(=S)N(Cc2ccccc2)Cc2ccccc2F)c1 | 23.1 µM | > 25
74 | O=C(COc1ccccc1-c1ccccc1)NCc1cccc(Cl)c1 | 15 µM | > 25
75 | COC(=O)c1ccccc1NC(=O)CNc1cc(Cl)ccc1N1CCOCC1 | 24.7 µM | > 25
76 | S=C1NC(C23CC4CC(CC(C4)C2)C3)=CC(c2ccc3c(c2)OCO3)N1 (centres undefined) | 4.6 µM | > 25
77 | COc1ccc(Cc2nc3ccc(S(=O)(=O)N4CCOCC4)cc3[nH]2)cc1 | > 25 µM (inactive) | > 25
78 | N#C[C@H]1[C@H](c2ccccc2)[C@](C#N)(C(=O)c2ccccc2)[C@@H]2C=Cc3ccccc3N21 | > 25 µM (inactive) | > 25
79 | O=C(c1ccc(Cl)c(Cl)c1)c1cnc(Nc2ccccc2)s1 | > 25 µM (inactive) | > 25
80 | COc1ccccc1-n1cnc2sc(-c3ccccc3)cc2c1=O | > 25 µM (inactive) | > 25
81 | O=C(COC(=O)c1cc(-c2cccc(Br)c2)nc2ccccc12)NCC1CCCO1 (centres undefined) | 19.8 µM | > 25
82 | O=C(c1ccco1)N1CCN(C(=O)C2c3ccccc3Oc3ccccc32)CC1 | > 25 µM (inactive) | > 25
